Consider six compounds from patent US8969388B1, “Substituted pyrazolone compounds and methods of use” (Calitor Sciences, LLC, priority 2012, dated 2015).

Read-outs that look alike come from different tables or passages of the source.

For one series, the system named is U87MG glioblastoma cells. Description: U87MG tumor xenograft model, tumor growth inhibition. Type of series: in vivo, athymic nude mice (BALB/cA nu/nu). To be noted: mice, oral gavage. As to the method:
The efficacy of compounds disclosed herein was evaluated in a standard murine model of tumorigenesis. Human tumor cells (U87MG glioblastoma cells from ATCC) were expended in culture, harvested, and injected subcutaneously onto the rear flank of 6-7 week old female athymic nude mice (BALB/cA nu/nu, Hunan SLAC Laboratory Animal, Co.) (n=6-10 for vehicle group and for each dosing group). When tumors reached a volume of 100-250 mm^3, animals were randomly divided into vehicle control (for example, 5% DMSO+70% Captisol® (30%), 7% HCl (pH1), 18% Captisol® (30%); or 7% DMSO, 7% HCl (pH1), 70% Captisol® (30%), 16% Captisol® (30%), or the like) and compound groups. Subsequent administration of compound by oral gavage begins anywhere from day 0 to day 15 post tumor cell challenge and generally continues with once a day for the duration of the experiment.
Progression of tumor growth is assessed by tumor volumes and recorded as a function of time. The long (L) and short (W) axes of the subcutaneous tumors were measured with calipers twice weekly, and the tumor volume (TV) calculated as (L×W^2)/2). TGI was calculated from the difference between the median tumor volumes of vehicle-treated and drug-treated mice, expressed as a percentage of the median tumor volume of the vehicle-treated control group, by the following relation:
[formula] Initial statistical analysis is done by repeated measures analysis of variance (RMANOVA), followed by Scheffe psot hoc testing for multiple comparisons. Vehicle alone (5% DMSO+70% Captisol® (30%), 7% HCl (pH1), 18% Captisol® (30%); or 7% DMSO, 7% HCl (pH1), 70% Captisol® (30%), 16% Captisol® (30%), or the like) is the negative control.

The target in another series is T1, c-Met (h) (Homo sapiens, UniProt P08581).
T1 construct: host or cells: E. coli BL21-derived host (T7 phage) or HEK-293
Description: KINOMEscan competition binding assay, c-Met (h). As to the method:
(§1) Alternatively, the kinase activities of the compounds can be measured using KINOMEscan™, which is based on a competition binding assay that quantitatively measures the ability of a compound to compete with an immobilized, active-site directed ligand. The assay was performed by combining three components: DNA-tagged kinase; immobilized ligand; and a test compound. The ability of the test compound to compete with the immobilized ligand was measured via quantitative PCR of the DNA tag.
(§2) For most assays, kinase-tagged T7 phage strains were prepared in an E. coli host derived from the BL21 strain. E. coli were grown to log-phase and infected with T7 phage and incubated with shaking at 32° C. until lysis. The lysates were centrifuged and filtered to remove cell debris. The remaining kinases were produced in HEK-293 cells and subsequently tagged with DNA for qPCR detection. Streptavidin-coated magnetic beads were treated with biotinylated small molecule ligands for 30 minutes at room temperature to generate affinity resins for kinase assays. The liganded beads were blocked with excess biotin and washed with blocking buffer (SEABLOCK™ (Pierce), 1% BSA, 0.05% TWEEN®20, 1 mM DTT) to remove unbound ligand and to reduce nonspecific binding. Binding reactions were assembled by combining kinases, liganded affinity beads, and test compounds in 1× binding buffer (20% SEABLOCK™, 0.17×PBS, 0.05% TWEEN®20, 6 mM DTT). All reactions were performed in polystyrene 96-well plates in a final volume of 0.135 mL. The assay plates were incubated at room temperature with shaking for 1 hour and the affinity beads were washed with wash buffer (1×PBS, 0.05% TWEEN®20). The beads were then re-suspended in elution buffer (1×PBS, 0.05% TWEEN®20, 0.5 μM non-biotinylated affinity ligand) and incubated at room temperature with shaking for 30 minutes. The kinase concentration in the eluates was measured by qPCR.
(§3) The kinase assays described herein were performed using KINOMEscan™ Profiling Service at DiscoveRx Corporation, 42501 Albrae St. Fremont, Calif.

Series [1] is described as follows: Pharmacokinetics after intravenous and oral administration in rats. Type of series: in vivo. The conditions noted are these: for F: oral bioavailability, oral dose not given; for AUC(0-t) / half-life / Vd: rat, plasma; for clearance (CL) after iv dosing / AUC(0-t) / half-life / Vd: iv dosing; for Vd: read-out: Vss. On the procedure: The compounds disclosed herein are assessed in pharmacokinetic studies in mice, rats, dogs or monkeys. The compounds are administered as a water solution, 2% HPMC+1% TWEEN®80 in water solution, 5% DMSO+5% solutol in saline, 4% MC suspension or capsule. For the intravenous administration, the animals are generally given at 1 or 2 mg/kg dose. For the oral (p.o.) dosing, mice and rats are generally given 5 or 10 mg/kg dose, and dogs and monkeys are generally given 10 mg/kg dose. The blood samples (0.3 mL) are drawn at 0.25, 0.5, 1.0, 2.0, 3.0, 4.0, 6.0, 8.0, 12 and 24 h time points or 0.083, 0.25, 0.5, 1.0, 2.0, 4.0, 6.0, 8.0 and 24 h time points and centrifuged at 3,000 or 4000 rpm for 2 to 10 min. The plasma solutions are collected, stored at −20° C. or −70° C. until analyzed by LC/MS/MS as described above.

The next series deals with T2, KDR (h) (Homo sapiens, UniProt P35968).
T2 construct: host or cells: E. coli BL21-derived host (T7 phage) or HEK-293
Description: KINOMEscan competition binding assay, KDR (h). As to the method: as §1, §2, §3

A short description of series [2]: Compound stability in human liver microsomes. It is filed as in vitro ADME. The conditions noted are these: pH 7.4; for half-life at 5 μM: human liver microsomes 0.5 mg protein/mL, compound 5 μM, NADPH, 37° C., read-out: Human T1/2; for CLint scaled at 5 μM: human liver microsomes, in vivo CLint extrapolated. As to the method:
(§4) Human or rat liver microsomes incubations were conducted in duplicate in polypropylene tubes. The typical incubation mixtures consisted of human liver microsomes (0.5 mg protein/mL), compounds of interest (5 μM) and NADPH (1.0 mM) in a total volume of 200 μL potassium phosphate buffer (PBS, 100 mM, pH 7.4). Compounds were dissolved in DMSO and diluted with PBS such that the final concentration of DMSO was 0.05%. The enzymatic reactions were commenced with the addition of protein after a 3-min preincubation and incubated in a water bath open to the air at 37° C. Reactions were terminated at various time points (0, 5, 10, 15, 30, 60 min) by adding equal volume of ice-cold acetonitrile. The samples were stored at −80° C. until LC/MS/MS assays.
(§5) The concentrations of compounds in the incubation mixtures of human liver microsomes were determined by a LC/MS/MS method. The ranges of the linearity in the concentration range were determined for each tested compounds.
(§6) A parallel incubation was performed using denatured microsomes as the negative control, and reactions were terminated at various time points (0, 15, 60 min) after incubation at 37° C.
(§7) Dextromethorphan (70 μM) was selected as the positive control, and reactions were terminated at various time points (0, 5, 10, 15, 30, 60 min) after incubation at 37° C. Both positive and negative control samples were included in each assay to ensure the integrity of the microsomal incubation system.
(§8) The concentrations of compounds in human liver microsome incubations were plotted as a percentage of the relevant zero time point control for each reaction. The in vivo CLint were extrapolated (ref: Naritomi Y, Terashita S, Kimura S, Suzuki A, Kagayama A, Sugiyama Y. Prediction of human hepatic clearance from in vivo animal experiments and in vitro metabolic studies with liver microsomes from animals and humans. Drug Metabolism and Disposition 2001, 29: 1316-1324.)

Series [3] can be described thus: Compound stability in rat liver microsomes. Type of series: in vitro ADME. The conditions noted are these: for half-life at 5 μM: pH 7.4, compound 5 μM, NADPH, 37° C., read-out: Rat T1/2; for CLint scaled at 5 μM: pH 7.4, in vivo CLint extrapolated. On the procedure:
as §4, §5, §6, §7, §8

T2 sequence (P35968 20-1356): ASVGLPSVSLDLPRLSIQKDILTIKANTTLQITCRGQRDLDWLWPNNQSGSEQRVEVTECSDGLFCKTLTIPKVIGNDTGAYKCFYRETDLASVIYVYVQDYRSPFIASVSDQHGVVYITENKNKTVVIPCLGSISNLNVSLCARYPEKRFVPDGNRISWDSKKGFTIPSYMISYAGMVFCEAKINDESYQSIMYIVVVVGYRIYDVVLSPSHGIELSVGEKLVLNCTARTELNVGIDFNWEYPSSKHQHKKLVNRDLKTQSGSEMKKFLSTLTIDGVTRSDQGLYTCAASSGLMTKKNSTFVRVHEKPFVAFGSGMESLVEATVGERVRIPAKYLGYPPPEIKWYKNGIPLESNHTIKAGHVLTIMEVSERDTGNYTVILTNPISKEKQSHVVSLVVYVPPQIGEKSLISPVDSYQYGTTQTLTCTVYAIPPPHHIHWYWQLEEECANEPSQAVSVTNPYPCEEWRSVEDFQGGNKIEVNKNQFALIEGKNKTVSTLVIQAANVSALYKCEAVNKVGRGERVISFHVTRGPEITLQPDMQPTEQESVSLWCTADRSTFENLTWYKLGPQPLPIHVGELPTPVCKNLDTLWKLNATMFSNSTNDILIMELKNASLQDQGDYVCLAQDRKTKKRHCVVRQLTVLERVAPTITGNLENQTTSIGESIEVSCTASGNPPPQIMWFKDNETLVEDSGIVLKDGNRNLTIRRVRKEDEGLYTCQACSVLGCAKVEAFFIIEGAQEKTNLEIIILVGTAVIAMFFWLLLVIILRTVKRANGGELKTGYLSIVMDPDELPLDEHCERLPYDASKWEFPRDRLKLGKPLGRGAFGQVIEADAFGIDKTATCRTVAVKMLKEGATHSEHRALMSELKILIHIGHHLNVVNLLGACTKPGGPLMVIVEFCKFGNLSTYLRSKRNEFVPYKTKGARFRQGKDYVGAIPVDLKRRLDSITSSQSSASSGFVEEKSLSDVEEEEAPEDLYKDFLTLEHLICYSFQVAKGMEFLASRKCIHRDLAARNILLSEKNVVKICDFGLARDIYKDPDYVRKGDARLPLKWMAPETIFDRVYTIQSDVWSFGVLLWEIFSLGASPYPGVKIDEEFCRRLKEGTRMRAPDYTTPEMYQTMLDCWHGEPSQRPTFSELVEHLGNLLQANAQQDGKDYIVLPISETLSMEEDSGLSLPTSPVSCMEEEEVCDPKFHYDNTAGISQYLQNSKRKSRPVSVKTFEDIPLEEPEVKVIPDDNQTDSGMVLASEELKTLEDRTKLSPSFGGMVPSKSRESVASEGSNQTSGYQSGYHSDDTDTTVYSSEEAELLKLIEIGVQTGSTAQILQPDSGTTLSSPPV
T1 sequence (P08581 25-1390): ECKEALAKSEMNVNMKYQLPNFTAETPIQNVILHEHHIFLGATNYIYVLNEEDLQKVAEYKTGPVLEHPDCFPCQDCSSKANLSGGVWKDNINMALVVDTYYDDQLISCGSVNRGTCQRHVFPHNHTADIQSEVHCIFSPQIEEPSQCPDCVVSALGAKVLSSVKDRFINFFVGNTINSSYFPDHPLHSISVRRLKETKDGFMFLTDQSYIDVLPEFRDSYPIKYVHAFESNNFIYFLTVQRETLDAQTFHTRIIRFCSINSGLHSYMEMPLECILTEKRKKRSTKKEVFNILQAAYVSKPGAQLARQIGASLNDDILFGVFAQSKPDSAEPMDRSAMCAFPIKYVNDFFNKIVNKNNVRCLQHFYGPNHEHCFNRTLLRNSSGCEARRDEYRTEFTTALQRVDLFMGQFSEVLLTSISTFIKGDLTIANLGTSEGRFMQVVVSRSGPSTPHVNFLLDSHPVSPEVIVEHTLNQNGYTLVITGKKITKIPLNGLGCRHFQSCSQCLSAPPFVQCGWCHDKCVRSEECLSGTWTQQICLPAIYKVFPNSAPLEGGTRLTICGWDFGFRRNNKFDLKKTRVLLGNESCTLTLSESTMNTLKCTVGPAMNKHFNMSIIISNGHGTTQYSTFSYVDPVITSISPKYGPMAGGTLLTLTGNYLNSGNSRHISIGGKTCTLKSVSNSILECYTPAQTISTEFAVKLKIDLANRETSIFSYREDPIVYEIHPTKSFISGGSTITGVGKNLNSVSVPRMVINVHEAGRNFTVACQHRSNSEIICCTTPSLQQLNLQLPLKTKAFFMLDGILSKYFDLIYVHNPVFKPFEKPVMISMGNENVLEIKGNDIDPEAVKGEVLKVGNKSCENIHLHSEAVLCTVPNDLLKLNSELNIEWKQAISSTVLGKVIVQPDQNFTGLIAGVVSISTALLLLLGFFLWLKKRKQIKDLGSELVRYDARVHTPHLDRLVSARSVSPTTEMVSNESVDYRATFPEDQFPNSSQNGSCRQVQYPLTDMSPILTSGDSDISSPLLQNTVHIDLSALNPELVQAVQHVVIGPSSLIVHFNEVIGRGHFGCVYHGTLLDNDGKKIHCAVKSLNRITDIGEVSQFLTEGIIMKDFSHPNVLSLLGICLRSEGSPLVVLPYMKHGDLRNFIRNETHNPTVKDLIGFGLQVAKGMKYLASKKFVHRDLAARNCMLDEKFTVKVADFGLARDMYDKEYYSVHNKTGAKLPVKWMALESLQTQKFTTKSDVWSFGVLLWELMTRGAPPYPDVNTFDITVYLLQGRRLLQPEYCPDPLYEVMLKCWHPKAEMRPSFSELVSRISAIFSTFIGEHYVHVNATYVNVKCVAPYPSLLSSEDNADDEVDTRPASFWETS

In the case of `Cc1c(C(=O)Nc2ccc(Oc3ccnc(NC(=O)N4CCOCC4)c3)cn2)c(=O)n(-c2ccccc2)n1C` [Ex. 18, N-(4-((6-(1,5-dimethyl-3-oxo-2-phenyl-2,3-dihydro-1H-pyrazole-4-carboxamido)pyridin-3-yl)oxy)pyridin-2-yl)morpholine-4-carboxamide], the “TGI % (on last day of dosing)” value in the series with U87MG glioblastoma cells (6 mg/kg, 14 days) is recorded as 28%. For the same compound, in the series on U87MG glioblastoma cells (20 mg/kg, 14 days), the “TGI % (on last day of dosing)” value was found to be 49%. For the same compound, the “TGI % (on last day of dosing)” value in the series with U87MG glioblastoma cells (60 mg/kg, 14 days) came to 57%. For the same compound, on c-Met (h), the Kd (usually a measure of binding affinity in units of concentration) was found to be 2.9 nM. Further, in series [1] (1 mg/kg), the “clearance (CL) after iv dosing” value amounted to 4 mL/min/kg; the exposure AUC(0-t) (in general, exposure summed from dosing to a finite time, without extrapolation to infinity) is 4290 ng·h/mL; the half-life is 1.23 h; the Vd was found to be 0.36 L/kg. The compound further registered a F in series [1] (iv dose 1 mg/kg) of 77.2%. At KDR (h), this compound had a Kd of 39 nM.

Turning to `Cc1c(C(=O)Nc2ccc(Oc3ccnc(N)c3Cl)cc2)c(=O)n(-c2ccccc2)n1C` [Ex. 2, N-(4-((2-amino-3-chloropyridin-4-yl)oxy)phenyl)-1,5-dimethyl-3-oxo-2-phenyl-2,3-dihydro-1H-pyrazole-4-carboxamide], the “TGI % (on last day of dosing)” value with U87MG glioblastoma cells (6 mg/kg, 14 days) was determined as 29%. Further, in the series with U87MG glioblastoma cells (20 mg/kg, 14 days), the “TGI % (on last day of dosing)” value turned out to be 69%. In the series with U87MG glioblastoma cells (60 mg/kg, 14 days), the “TGI % (on last day of dosing)” value is 82%. The compound also returned a Kd at c-Met (h) of 13 nM. Further, in series [1] (1 mg/kg), the “clearance (CL) after iv dosing” value is 23.2 mL/min/kg, the AUC(0-t) was 685 ng·h/mL, the half-life was 4.1 h and the Vd turned out to be 1.75 L/kg. The compound also showed a F in series [1] (iv dose 1 mg/kg) of 98.5%. At KDR (h), this compound came in with a Kd of 43 nM.

As to `Cc1c(C(=O)Nc2cc(F)c(Oc3ccnc(N)c3)cc2F)c(=O)n(-c2ccccc2)n1C` [Ex. 8, N-(4-((2-aminopyridin-4-yl)oxy)-2,5-difluorophenyl)-1,5-dimethyl-3-oxo-2-phenyl-2,3-dihydro-1H-pyrazole-4-carboxamide], the “TGI % (on last day of dosing)” value with U87MG glioblastoma cells (6 mg/kg, 14 days) stood at 13%; with U87MG glioblastoma cells (20 mg/kg, 14 days), 25%; in the series with U87MG glioblastoma cells (60 mg/kg, 14 days), 43%. The Kd at c-Met (h) was determined as 4.8 nM; on KDR (h), 1500 nM. Also, the “clearance (CL) after iv dosing” value in series [1] (2 mg/kg) is 10.2 mL/min/kg. In series [1] (iv dose 2 mg/kg), this compound displayed an F of 85.1%. The same compound showed an AUC(0-t) in series [1] (2 mg/kg) of 3350 ng·h/mL. The compound further had a half-life in series [1] (2 mg/kg) of 0.82 h. In series [1] (2 mg/kg), the Vd turned out to be 0.51 L/kg.

As for `CC(=O)Nc1cc(Oc2ccc(NC(=O)c3c(C)n(C)n(-c4ccccc4)c3=O)nc2)ccn1` [Ex. 17, N-(5-((2-acetamidopyridin-4-yl)oxy)pyridin-2-yl)-1,5-dimethyl-3-oxo-2-phenyl-2,3-dihydro-1H-pyrazole-4-carboxamide], the “TGI % (on last day of dosing)” value in the series with U87MG glioblastoma cells (6 mg/kg, 12 days) is listed as 26%; in the series with U87MG glioblastoma cells (20 mg/kg, 12 days), 56%; in the series on U87MG glioblastoma cells (60 mg/kg, 12 days), 85%. In addition, the Kd was determined as 20 nM on c-Met (h) and 25 nM on KDR (h). For the same compound, the “clearance (CL) after iv dosing” value in series [1] (2 mg/kg) is 0.5 mL/min/kg. The F in series [1] (iv dose 2 mg/kg) stood at 59.7%. This compound also registered an AUC(0-t) in series [1] (2 mg/kg) of 69900 ng·h/mL. In series [1] (2 mg/kg), the half-life is 7.29 h. The Vd in series [1] (2 mg/kg) came to 0.22 L/kg.

For `Cc1c(C(=O)Nc2ccc(Oc3ccnc(N)c3Cl)cc2F)c(=O)n(-c2ccccc2)n1C` [Ex. 31, N-(4-((2-amino-3-chloropyridin-4-yl)oxy)-2-fluorophenyl)-1,5-dimethyl-3-oxo-2-phenyl-2,3-dihydro-1H-pyrazole-4-carboxamide], in series [1] (2 mg/kg), the “clearance (CL) after iv dosing” value is 8.83 mL/min/kg, the AUC(0-t) was determined as 3910 ng·h/mL, the half-life is 3.29 h and the Vd worked out at 0.4 L/kg. In series [1] (iv dose 2 mg/kg), this compound registered an F of 70.3%. Moreover, in series [2], the half-life at 5 μM was 2.44 h and the CLint scaled (usually the rate of metabolic loss divided by the concentration) at 5 μM is 11.8 mL/min/kg. Besides, in series [3], the half-life at 5 μM is 0.611 h and the CLint scaled at 5 μM was 67.8 mL/min/kg.

Take `Cc1c(C(=O)Nc2ccc(Oc3ccnc(N)c3)cc2F)c(=O)n(-c2ccccc2)n1C` [Ex. 30, N-(4-((2-aminopyridin-4-yl)oxy)-2-fluorophenyl)-1,5-dimethyl-3-oxo-2-phenyl-2,3-dihydro-1H-pyrazole-4-carboxamide]: in series [1] (2 mg/kg), the “clearance (CL) after iv dosing” value was determined as 22 mL/min/kg, the AUC(0-t) was found to be 1490 ng·h/mL, the half-life was 11.8 h and the Vd was 2.64 L/kg. Further, the F in series [1] (iv dose 2 mg/kg) is recorded as 54.4%. In series [2], the half-life at 5 μM was 2.09 h and the CLint scaled at 5 μM was 13.9 mL/min/kg. In series [3], the half-life at 5 μM was 1.61 h and the CLint scaled at 5 μM was 25.8 mL/min/kg.
